Measured values reported in patent US20080234202A1, “Non-natural amino acids and neurotensin analogues” (priority 2004, published 2008).
Structures can show the parent of a compound that is named as a salt. Where two headings read alike, the source gives them in different places. Marks after values point to notes of the source that are not given here. Each block holds one molecule with its values, some of them ahead of it. Where a SMILES comes first, the peptide text is derived from it. [ ]: non-standard residue; d: D form. The star is where a group is joined. X4 = [N-]=[N+]=N[C@@H](CCCCCN)C(=O)*; X2 = C[C@@H](CCC[N+](C)(C)C)C(=O)*; Tle = CC(C)(C)[C@H](N)C(=O)O; X1 = C[C@@H](CCCCCN)C(=O)*

What was measured:
[1] = biological target: NTR-2 (Rattus norvegicus, UniProt Q63384); settings: for Tmax (I.P.) of %MPE / MPE (I.P.): IP at 10 mg/kg; for asterisk at peptide name: significant activity in the hotplate assay: Table 13; for MPE (I.P.): hotplate 52 C, cutoff 30 sec; for MPE (oral) / Tmax (Oral) of %MPE: orally at 20 mg/kg
Description: Animals. […] (230-260 g) or Harlan, Prattville Ala.
The Hotplate Assay. The hotplate assay, a standard rat model for […] pain (see Le Bars et al., Pharmacol. Rev. 53: 597-652 (2001) and Chapman et al., Pain 22:1-31 (2002)), was performed as follows. A hotplate maintained at 52° C. to 53° C. was enclosed on four sides in a plexiglass chamber that extended 6 in. above the plate. Animals were placed on the plate, and the latency between the time a rat was placed on the surface and when it lifts or licks a back paw (indicative of pain sensation) was determined. Animals are removed immediately at the cutoff latency of 30 seconds. Assays are scored as the percent of maximal possible effect (% MPE) defined as 100%, which corresponds to the rats remaining on the hotplate for 30 seconds without responding. Thus, % MPE are calculated using the following equation: % MPE=[(post-drug latency-pre-drug latency)/(cut-off pre-drug latency)]×100%. N=6 or greater for all experiments.
Values for each set of experiments will be submitted to analysis of variance, with dose (vehicle and 5 levels) as the factor. […] An effect will be considered significant if p<0.05.
Tmax indicates the time after dosing in which a maximum response was observed.
Initial screens of all peptides included (1) evaluating their analgesic ability when dosed IP or orally (indicative of NTR-2 agonism) and (2) evaluating their ability to induce hypothermia when IP, a secondary effect of NTR-1 agonist activity.

[2] = biological target: NTR-2 (Homo sapiens, UniProt O95665); assay: Competitive NTR-2 binding versus radiolabeled NT[8-13]
[3] = biological target: NTR-1 (Homo sapiens, UniProt P30989); assay: Competitive NTR-1 binding versus radiolabeled NT[8-13]
[4] = Acute toxicity, clinical observation and maximum tolerated dose in rats; format: in vivo, rat
Description: During the 2 and 24 hour post-dosing clinical observation periods, measurements of core body temperatures were taken.

[5] = Pharmacokinetics of ABS212 in Sprague-Dawley rats; format: in vivo, rat; settings: for Vd: read-out: volume of distribution at terminal phase; for half-life: read-out: half-life (T1/2) (converted); for clearance: read-out: systemic clearance (converted)
Text: These samples were used for the determination of plasma parent drug concentrations by LC/MS/MS for estimating pharmacokinetic parameters and oral bioavailability.

[6] = Sprague-Dawley, rat, plasma, IV bolus 1 mg/kg
[7] = Sprague-Dawley, rat, plasma, IV bolus 2.5 mg/kg
[8] = Sprague-Dawley, rat, plasma, IV bolus 5 mg/kg
[9] = Sprague-Dawley, rat, plasma, oral 50 mg/kg

Chain of NTR-2 (Rattus norvegicus, UniProt Q63384) (Q63384 whole entry): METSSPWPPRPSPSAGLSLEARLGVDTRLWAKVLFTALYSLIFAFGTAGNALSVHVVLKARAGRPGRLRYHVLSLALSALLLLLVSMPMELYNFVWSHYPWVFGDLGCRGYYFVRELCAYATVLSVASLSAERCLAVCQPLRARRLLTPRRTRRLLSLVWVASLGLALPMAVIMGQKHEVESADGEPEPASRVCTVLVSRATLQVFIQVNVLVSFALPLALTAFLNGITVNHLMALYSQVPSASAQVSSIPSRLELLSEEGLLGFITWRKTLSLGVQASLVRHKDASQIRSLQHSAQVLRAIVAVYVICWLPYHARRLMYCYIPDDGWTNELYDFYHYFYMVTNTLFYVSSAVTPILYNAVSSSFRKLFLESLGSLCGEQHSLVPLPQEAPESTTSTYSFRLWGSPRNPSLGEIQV
Chain of NTR-1 (P30989 whole entry, species assumed): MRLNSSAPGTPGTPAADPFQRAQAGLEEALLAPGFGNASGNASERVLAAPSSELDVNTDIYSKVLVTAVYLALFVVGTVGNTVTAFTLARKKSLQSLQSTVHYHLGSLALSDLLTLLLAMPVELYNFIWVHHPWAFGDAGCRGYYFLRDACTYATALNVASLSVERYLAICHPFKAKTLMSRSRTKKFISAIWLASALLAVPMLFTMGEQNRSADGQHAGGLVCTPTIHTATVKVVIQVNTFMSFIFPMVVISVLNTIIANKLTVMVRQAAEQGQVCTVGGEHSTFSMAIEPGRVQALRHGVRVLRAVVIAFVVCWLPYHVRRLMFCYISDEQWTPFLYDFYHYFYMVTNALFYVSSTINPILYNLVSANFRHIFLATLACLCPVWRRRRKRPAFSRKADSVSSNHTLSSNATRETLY
Chain of NTR-2 (Homo sapiens, UniProt O95665) (O95665 whole entry, species assumed): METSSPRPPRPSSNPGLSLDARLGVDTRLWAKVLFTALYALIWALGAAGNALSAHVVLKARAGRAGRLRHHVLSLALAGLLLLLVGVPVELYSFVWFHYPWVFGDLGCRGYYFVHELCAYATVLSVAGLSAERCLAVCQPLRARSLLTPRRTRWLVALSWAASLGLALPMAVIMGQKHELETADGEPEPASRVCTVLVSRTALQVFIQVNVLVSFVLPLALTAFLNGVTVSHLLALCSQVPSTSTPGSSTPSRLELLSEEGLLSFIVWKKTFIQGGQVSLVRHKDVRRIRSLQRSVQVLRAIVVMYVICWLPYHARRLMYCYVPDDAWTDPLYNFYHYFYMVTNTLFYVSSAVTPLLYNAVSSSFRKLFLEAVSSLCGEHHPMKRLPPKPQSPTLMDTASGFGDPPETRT

Molecule: 1-Arg-Pro-Tyr-t-Leu-Leu [ABS202]
Tmax (I.P.) of %MPE ([1]; 10 mg/kg): 30-75
asterisk at peptide name: significant activity in the hotplate assay [1]: ABS202*
MPE (I.P.) ([1]; 10 mg/kg): 100%
% MPE ([1]; hotplate 52° C., cutoff 30 seconds, Table 10): 100%
% MPE (tmax, min) ([1]; hotplate, Table 10): 45 min
MPE (oral) ([1]; hotplate, 20 mg/kg): 52%
Tmax (Oral) of %MPE ([1]; 20 mg/kg): 45

Molecule: CC(C)C[C@H](NC(=O)[C@@H](NC(=O)[C@H](Cc1ccc(O)cc1)NC(=O)[C@@H]1CCCN1C(=O)[C@H](CCCNC(=N)N)NC(=O)[C@H](CCCCCN)N=[N+]=[N-])C(C)(C)C)C(=O)O [ABS13, N3-L-homolysine-Arg-Pro-Tyr-tertLeu-Leu-COOH] (X4-RPY[Tle]L-OH)
EC50 [2]: 11.1 ± 0.1 nM
EC50 [3]: 5.7 ± 0.37 nM

Molecule: CC[C@H](C)[C@H](NC(=O)[C@H](Cc1ccc(O)cc1)NC(=O)[C@@H]1CCCN1C(=O)[C@H](CCCNC(=N)N)NC(=O)[C@H](CCCNC(=N)NC)N=[N+]=[N-])C(=O)N[C@@H](CC(C)C)C(=O)O [ABS16, X-Arg-Pro-Tyr-isoleu-Leu]
EC50 [3]: 0.3 ± 0.05 nM

Molecule: CCNC(=N)NCCC[C@H](N=[N+]=[N-])C(=O)N[C@@H](CCCNC(=N)N)C(=O)N1CCC[C@H]1C(=O)N[C@@H](Cc1ccc(O)cc1)C(=O)N[C@H](C(=O)N[C@@H](CC(C)C)C(=O)O)[C@@H](C)CC [ABS17, X-Arg-Pro-Tyr-isoleu-Leu]
EC50 [3]: 0.25 ± 0.07 nM

Molecule: CC(C)C[C@H](NC(=O)[C@@H](NC(=O)[C@H](Cc1ccc(O)cc1)NC(=O)[C@@H]1CCCN1C(=O)[C@H](CCCNC(=N)N)NC(=O)[C@@H](C)CCCCCN)C(C)(C)C)C(=O)O [ABS201 HCl] (X1-RPY[Tle]L-OH)
clinical observation 2 hour post-dosing ([4]; 50 mg/kg IV): all animals appeared grossly normal although marked hypothermia was present
clinical observation 24 hour post-dosing ([4]; 50 mg/kg IV): all animals appeared grossly normal; hypothermia was absent
acute behaviour during intravenous dosing ([4]; 50 mg/kg IV, slow push via tail vein): noticeably sedate
clinical observation after oral dosing ([4]; 250 mg/kg PO): appeared grossly normal at all time points

clearance as % of rat hepatic blood flow (3.31 L/hr/kg) ([5]; IV bolus 1 mg/kg): 32.33%
clearance as % of rat hepatic blood flow (3.31 L/hr/kg) ([5]; IV bolus 5 mg/kg): 12.08%
clearance as % of rat hepatic blood flow (3.31 L/hr/kg) ([5]; IV bolus […]): 12.08%
Vd ([5]; Sprague-Dawley, rat, plasma, IV 1 mg/kg): 0.43 ± 0.15 L/kg
Vd ([5]; Sprague-Dawley, rat, plasma, IV 2.5 mg/kg): 0.15 ± 0.01 L/kg
Vd ([5]; Sprague-Dawley, rat, plasma, IV 5 mg/kg): 0.16 ± 0.06 L/kg
half-life [5, 6]: 16.8 ± 4.8 min
clearance [5, 6]: 17.8 mL/min/kg
half-life [5, 7]: 16.8 ± 6.6 min
clearance [5, 7]: 6.67 mL/min/kg
half-life [5, 8]: 17.4 ± 7.8 min
clearance [5, 8]: 6.67 mL/min/kg
AUC(0-inf) [5, 9]: 53.1 ± 39.6 ng·h/mL
Cmax [5, 9]: 27.1 ± 11.6 ng/mL
Tmax [5, 9]: 8.4 ± 3 min
bioavailability ([5]; Sprague-Dawley, rat, plasma, oral 50 mg/kg, 1 mg/kg group as IV dose data): 0.11 ± 0.08%
half-life [5, 9]: 85.2 ± 52.2 min
Molecule: CC(C)C[C@H](NC(=O)[C@@H](NC(=O)[C@H](Cc1ccc(O)cc1)NC(=O)[C@@H]1CCCN1C(=O)[C@H](CCCNC(=N)N)NC(=O)[C@@H](C)CCC[N+](C)(C)C)C(C)(C)C)C(=O)O [ABS-212.2HCL] (X2-RPY[Tle]L-OH)

Molecule: Arg-Arg-Pro-Tyr-t-Leu-Leu [ABS213]
Tmax (I.P.) of %MPE [1]: 30
MPE (I.P.) ([1]; 10 mg/kg): 48%

Molecule: Arg-Arg-Pro-Tyr-t-Leu-Leu [ABS237]
Tmax (I.P.) of %MPE [1]: 30
MPE (I.P.) ([1]; 10 mg/kg): 50%

Molecule: Boc-Arg-Pro-Tyr-t-Leu-Leu [ABS700]
Tmax (I.P.) of %MPE [1]: 90
MPE (I.P.) [1]: 51%

Molecule: Lys-Arg-Pro-Tyr-t-Leu-Leu [ABS205]
Tmax (I.P.) of %MPE ([1]; 10 mg/kg): 15-30
asterisk at peptide name: significant activity in the hotplate assay [1]: ABS205*
MPE (I.P.) ([1]; 10 mg/kg): 86%
MPE (oral) ([1]; hotplate): 66%
Tmax (Oral) of %MPE [1]: 30

Molecule: Lys-Arg-Pro-Tyr-t-Leu-Leu [ABS229]
Tmax (I.P.) of %MPE ([1]; 10 mg/kg): 60
MPE (I.P.) ([1]; 10 mg/kg): 48%

Molecule: Orn-Arg-Pro-Tyr-t-Leu-Leu [ABS209]
Tmax (I.P.) of %MPE ([1]; 10 mg/kg): 60
MPE (I.P.) ([1]; 10 mg/kg): 89%

Molecule: Orn-Arg-Pro-Tyr-t-Leu-Leu [ABS233]
Tmax (I.P.) of %MPE ([1]; 10 mg/kg): 45
MPE (I.P.) ([1]; 10 mg/kg): 51%

EC50 ([3]; competitive binding, Table 12, read-out: NTR-1): 1.2 ± 0.7 nM
Molecule: X-Arg-Pro-Tyr-isoleu-Leu [ABS19]

Molecule: hLys-Arg-Pro-Tyr-t-Leu-Leu [ABS225]
Tmax (I.P.) of %MPE [1]: 15-45
asterisk at peptide name: significant activity in the hotplate assay [1]: ABS225*
MPE (I.P.) [1]: 100%
MPE (oral) ([1]; hotplate): 38%
Tmax (Oral) of %MPE [1]: 30
